In patent US20240425460A1, “CRYSTAL FORM OF NIROGACESTAT DIHYDROBROMIDE, AND PREPARATION METHOD THEREFOR, AND USE THEREOF” (CRYSTAL PHARMACEUTICAL (SUZHOU) CO., LTD., priority 2022, published 2024):

Key:
physchem = test: physchem
Experimental: 1.9 mg of Form CSII was weighted into a glass vial, then water was added dropwise at 37° C. until the solid is completely dissolved. The maximum insoluble volume and minimum dissolved volume of the sample in water were recorded, and the solubility of Form CSII in water (mg/mL) was calculated.

[1] = for Solubility in FaSSIF / Solubility in FeSSIF: 1 h
Excerpt: When solubility test is used to predict the in vivo performance of a drug, it is critical to simulate in vivo conditions as closely as possible. Fasted state simulated intestinal fluid (FaSSIF) and fed state simulated intestinal fluid (FeSSIF) can be used to simulate the conditions in vivo and predict the effects of eating, thus solubilities in these media are closer to those in vivo.
A certain amount of Form CSII and prior art Form A were suspended into FeSSIF and FaSSIF to get saturated solutions at 37° C. After equilibrated for 1 h, concentrations of the saturated solutions were measured by HPLC.
A certain amount of Form CSIII and Form A in the prior art were suspended into FeSSIF and FaSSIF to get saturated solutions at 37° C. After equilibrated for 1 h, concentrations of the saturated solutions were measured by HPLC.

[2] = Morphology by polarized light microscopy; type: physicochemical; conditions: PLM, magnification 100 times
Experimental: PLM data in the present disclosure were acquired by Sunny CX40P polarizing microscope.
The parameter of the PLM method of the present disclosure is as follows: • Magnification times: 100
About 0.5 mg Form CSII and prior art Form A were placed on a glass slide, a small amount of immersion oil was added to disperse the sample, and then the system was covered with a coverslip.
About 0.5 mg Form CSIII and prior art Form A were placed on a glass slide, a small amount of immersion oil was added to disperse the sample, and then the system was covered with a coverslip.

[3] = Particle size distribution (Mastersizer 3000, wet mode); type: physicochemical
Experimental: The particle size distribution data in the present disclosure were acquired by a Mastersizer 3000 laser particle size analyzer of Malvern. The test was carried out in wet mode, using a Hydro MV dispersion device, and the dispersant was Isopar G. The parameters are as follows:
Form CSII and prior art Form A were added into glass vials with the Isopar G (containing 0.2% lecithin). The mixture was mixed thoroughly and transferred into the Hydro MV dispersing device. The experiment was started when the obscuration is in appropriate range. The particle size distributions were tested before and after 60 seconds of ultrasonication to obtain the average particle size, D10 (the portion of particles with diameters below this value is 10%), D50 (the portion of particles with diameters below this value is 50%) and D90 (the portion of particles with diameters below this value is 90%), the results are listed in Table 9.

[4] = Density and flowability (bulk/tapped density, compressibility index); type: physicochemical; conditions: for Compressibility index: c=(ρf−ρ0)/ρf; for Tapped density (ρf): tapped 1250 times
Experimental: About 300-500 mg of powder were added into a 5-mL measuring cylinder, and a bulk density was recorded. Then the powder was tapped for 1250 times by ZS-2E tap density tester to make it in the tightest state and the tapped volume was recorded. The bulk density (ρ0) and tapped density (ρf) were calculated.
Compressibility also known as the Compressibility index or Carr index is usually utilized to evaluate the flowability of powder or granules during the drug product process. Compressibility index was calculated according to c=(ρf−ρ0)/ρf. According to criteria of flowability recorded in ICH Q4B Annex 13, the smaller the compressibility index, the better the flowability.

[5] = Compressibility (tensile strength after compression at 3 KN); type: physicochemical; conditions: 60 mg, Φ6 mm round tooling, T=2H/πDL
Experimental: ENERPAC manual tablet press was used for compression. 60 mg of Form CSII and prior art Form A were weighed and added into the dies of a Φ6 mm round tooling, compressed at 3 KN manually, then stored at room temperature for 24 h until elastic recovery is complete, diameter (D) and thickness (L) were tested with a caliper. Hardness (H) was tested with an intelligent tablet hardness tester. Tensile strength of the powder was calculated with the following formula: T=2H/πDL. […] Under a certain force, the greater the tensile strength, the better the compressibility.

[6] = Physical stability upon mechanical force (tableting, XRPD); type: physicochemical; conditions: 5 kN pressure for 10 s
Excerpt: A certain amount of Form CSII was compressed into a tablet under 5 kN pressure with the dies of a Φ6 mm round tooling by the manual tablet press, and the tablet was kept under 5 kN pressure for 10 s. Crystalline form before and after tableting were checked by XRPD.

[7] = Stability of drug substance on storage (XRPD, HPLC); type: physicochemical
Experimental: A certain amount of Form CSII were stored under different conditions of 25° C./60% RH and 40° C./75% RH after packing with different conditions listed in Table 11. Crystalline forms and chemical purities were checked by XRPD and HPLC, respectively.
Sealed with desiccants and antioxidants: Put a sample into a glass vial, cover the vial with aluminum foil, and punch holes in the foil, then seal the glass vial with 2 g silica gel desiccants and 2.2 g antioxidants in an aluminum foil bag.
A certain amount of Form CSIII were stored under different conditions of 25° C./60% RH, 40° C./75% RH and 60° C./75% RH after packing with different conditions listed in Table 16. Crystalline forms were checked by XRPD.
Sealed with desiccants and antioxidants: Put a sample into a glass vial, cover the vial with aluminum foil, and punch holes in the foil, then seal the glass vial with 2 g silica gel desiccant and 2.2 g antioxidant in an aluminum foil bag.

[8] = Stability of crystalline form in formulation process (XRPD); type: physicochemical; conditions: pre-blending, simulated dry granulation, tableting 5 kN
Experimental: The XRPD of the blank mixed powder and the samples before and after the formulation was tested.

[9] = 25° C./60% RH, sealed with desiccant and antioxidant
[10] = 40° C./75% RH, sealed with desiccant and antioxidant

Compound: Br.Br.CCC[C@H](N[C@H]1CCc2cc(F)cc(F)c2C1)C(=O)Nc1cn(C(C)(C)CNCC(C)(C)C)cn1 [Form A, (S)-2-(((S)-6,8-difluoro-1,2,3,4-tetrahydronaphthalen-2-yl)amino)-N-(1-(2-methyl-1-(neopentylamino)propan-2-yl)-1H-imidazol-4-yl) pentanamide, reference compound]
- Solubility in water, class by standards of Chinese Pharmacopoeia and United States Pharmacopoeia (physchem): slightly soluble
- Solubility in FaSSIF [1]: 6.7
- Solubility in FeSSIF [1]: 7.6
- Morphology [2]: agglomerates
- Average particle size ([3]; ultrasonication time 0 s): 646 μm
- D10 ([3]; ultrasonication time 0 s): 21.2 μm
- D50 ([3]; ultrasonication time 0 s): 415 μm
- D90 ([3]; ultrasonication time 0 s): 1640 μm
- Average particle size ([3]; ultrasonication time 60 s): 629 μm
- D10 ([3]; ultrasonication time 60 s): 14.4 μm
- D50 ([3]; ultrasonication time 60 s): 356 μm
- D90 ([3]; ultrasonication time 60 s): 1660 μm
- Bulk density (ρ0) [4]: 0.251 g/mL
- Compressibility index [4]: 10.8%
- Tapped density (ρf) [4]: 0.282 g/mL
- Tensile strength [5]: 0.37 MPa

Compound: Br.Br.CCC[C@H](N[C@H]1CCc2cc(F)cc(F)c2C1)C(=O)Nc1cn(C(C)(C)CNCC(C)(C)C)cn1 [Form CSII, (S)-2-(((S)-6,8-difluoro-1,2,3,4-tetrahydronaphthalen-2-yl)amino)-N-(1-(2-methyl-1-(neopentylamino)propan-2-yl)-1H-imidazol-4-yl) pentanamide]
- Solubility in water, times that of Form A (physchem): 3-5 times
- solubility (physchem; 37 °C, water, thermodynamic from solid): 19 to 38 mg/mL
- Solubility in FaSSIF, times that of prior art Form A [1]: 1.5 times
- Solubility in FeSSIF, times that of prior art Form A [1]: 1.5 times
- Solubility in FaSSIF [1]: 9.8
- Solubility in FeSSIF [1]: 11.7
- Morphology [2]: uniform plate crystalline form
- Average particle size ([3]; ultrasonication time 0 s): 198 μm
- D10 ([3]; ultrasonication time 0 s): 21.9 μm
- D50 ([3]; ultrasonication time 0 s): 157 μm
- D90 ([3]; ultrasonication time 0 s): 435 μm
- Average particle size ([3]; ultrasonication time 60 s): 119 μm
- D10 ([3]; ultrasonication time 60 s): 10.3 μm
- D50 ([3]; ultrasonication time 60 s): 81.7 μm
- D90 ([3]; ultrasonication time 60 s): 282 μm
- Bulk density (ρ0) [4]: 0.49 g/mL
- Compressibility index [4]: 5.3%
- Tapped density (ρf) [4]: 0.51 g/mL
- Tensile strength [5]: 0.68 MPa
- Crystalline form after tableting [6]: remains stable after tableting
- Purity after storage ([7]; 25° C./60% RH, 9 months, sealed with desiccants and antioxidants, HPLC): 99.43%
- Time the form keeps stable [7, 9]: at least 9 months
- Purity after storage ([7]; 40° C./75% RH, 6 months, sealed with desiccants and antioxidants, HPLC): 99.42%
- Time the form keeps stable [7, 10]: at least 6 months
- Purity ([7]; initial, HPLC): 99.37%
- Crystalline form after formulation process [8]: remains stable after the formulation process

Compound: Br.Br.CCC[C@H](N[C@H]1CCc2cc(F)cc(F)c2C1)C(=O)Nc1cn(C(C)(C)CNCC(C)(C)C)cn1 [Form CSIII, (S)-2-(((S)-6,8-difluoro-1,2,3,4-tetrahydronaphthalen-2-yl)amino)-N-(1-(2-methyl-1-(neopentylamino)propan-2-yl)-1H-imidazol-4-yl) pentanamide]
- Solubility in FaSSIF, times that of prior art Form A [1]: 1.3 times
- Solubility in FeSSIF, times that of prior art Form A [1]: 1.5 times
- Solubility in FaSSIF [1]: 8.7
- Solubility in FeSSIF [1]: 11.7
- Morphology [2]: uniform plate crystalline form
- Time the form keeps stable [7, 9]: at least 3 months
- Time the form keeps stable [7, 10]: at least 3 months
- Time the form keeps stable ([7]; 60° C./75% RH, sealed with desiccants and antioxidants): at least 2 months
